How the values were obtained:
[1] = Shia, et al. 2009; cited from earlier work
Akita mouse = details: Maher et al. 2011; cited from earlier work
[2] = system: primary mouse cortical neurons; assay: primary cortical cell glutamate excitotoxicity assay; type: cell-based; details: E14 mouse primary cortical neurons, 10 μM glutamate 10 min, Baicalein 0.2-5 μM, MTT 24 hr
Procedure: FIG. 5B—excitotoxicity assay was done with E14 mouse primary cortical neuron cultures. After 11 days of culture, cells were exposed to 10 μM glutamate for 10 min, followed by the addition of varying concentrations of Baicalein (0.2-5 μM). Cell viability was determined 24 hr later with a standard MTT assay.
Excitotoxicity cell assay: Primary cultures of cortical neurons that die due to excitotoxicity were prepared as described previously. Briefly, BALB/c mouse embryo cortices were minced and treated with 0.1% trypsin for 20 min. After centrifugation, the cells are resuspended in 827 Neurobasal medium (Invitrogen) plus 10% fetal calf serum and are dissociated by repeated pipetting through a 1 mL blue Eppendorf pipette tip. Then the cells are plated at 1×10^5 cells per well in 96-well poly-L-lysine and laminin-coated microtiter plates (Becton Dickinson, Bedford, Mass., USA) in 827 Neurobasal plus 10% fetal calf serum and 20% glial growth-conditioned medium. Two days later the medium is aspirated and replaced by serum-free 827 Neurobasal medium plus 10 μg/mL cytosine arabinoside. The cultures are used without media change 11 days after plating and are essentially free of astrocytes. They are exposed to 10 μM glutamate followed by varying concentrations of the compounds. Cell viability is determined 24 h later using […]. […]

rat cortical neurons = assay: trophic factor withdrawal; type: cell-based; details: serum-containing medium, Baicalein 10-10,000 nM, 2 days
Procedure: FIG. 5A—trophic factor withdrawal. Primary cortical neurons are prepared from 18-day-old rat embryos, and cultured at low cell density 1×10^6/35 mm dish, in serum containing medium with Baicalein (10-10,000 nM), and viability assayed 2 days later using a live-dead assay. […] These include trophic factor withdrawal (TFW), excitotoxicity, glucose starvation, and most importantly, in a chemical ischemia model. […] (FIG. 5A). Using a published excitotoxicity assay, Baicalein rescues about 35% of the cells (FIG. 5B).

PC12 cells = assay: glucose starvation assay; type: cell-based; details: PC12 cells starved for glucose, MTT 24 hr
Procedure: FIG. 5C—PC12 cells were glucose-deprived then were incubates in the absence or presence of Baicalein. Cell viability was determined 24 hr later using the MTT assay. […] When these cells are starved for glucose, there is approximately 70% maximal survival in the presence of NGF. Baicalein promotes over 80% survival (FIG. 5C).

RGC-5 nerve cells = assay: chemical ischemia model (IAA) in RGC-5 cells; type: cell-based; details: RGC-5, 30 μM IAA 2 hr, Baicalein 5-25 μM, also added 2 hrs after insult
Procedure: FIG. 5D—RGC-5 nerve cells were treated with 30 μM iodoacetic acid for 2 hr in the presence or absence of 5-25 μM Baicalein. In some experiments, Baicalein was added 2 hr after the ischemic event. Cell survival (%) was measured after 24 hr by the MTT assay. Baicalein added before (□) or 2 hr after (●) ischemia. […] When these cells are starved for glucose, there is approximately 70% maximal survival in the presence of NGF. Baicalein promotes over 80% survival (FIG. 5C).

| Structure (SMILES) | bioavailability [1] | elevation of blood sugar (Akita mouse) | kidney hypertrophy and albuminuria (Akita mouse) | cells rescued [2] | survival of low-density cultured rat cortical neurons (rat cortical neurons) | survival (PC12 cells) | cell death in chemical ischemia model (RGC-5 nerve cells) |
| --- | --- | --- | --- | --- | --- | --- | --- |
| O=c1c(O)c(-c2ccc(O)c(O)c2)oc2cc(O)ccc12 [Fisetin, 3,7,3′,4′-tetrahydroxy flavone] | poor | no effect | reduced | – | – | – | – |
| O=c1cc(-c2ccccc2)oc2cc(O)c(O)c(O)c12 [Baicalein, 5,6,7-trihydroxyflavone] | – | – | – | about 35% | dramatically promotes the survival | over 80% | prevents cell death |

Source: US9744164B2, “Neuroprotective polyphenol analogs” (Salk Institute for Biological Studies, priority 2011, dated 2017)
